Tests used:
Botrytis cinerea = assay: Test B: gray mold, preventive spray on tomato seedlings; conditions: 100 = 100% disease control; for Test B rating (% disease control): 10 ppm, gray mold on tomato, 0 = no control
From the text: (§1) General protocol for preparing test solutions for Tests A-G: the test compounds were first dissolved in acetone in an amount equal to 3% of the final volume and then suspended at the desired concentration (in ppm) in acetone and purified water (50/50 mix by volume) containing 250 ppm of the surfactant PEG400 (polyhydric alcohol esters). The resulting test suspensions were then used in Tests A-G. Compounds were sprayed at a concentration of 50 ppm (*) or 10 ppm to the point of run-off on the test plants, the equivalent of a rate of 200 g/ha or 40 g/ha, respectively.
The test solution was sprayed to the point of run-off on tomato seedlings. The following day the seedlings were inoculated with a spore suspension of Botrytis cinerea (the causal agent of gray mold on many crops) and incubated in a saturated atmosphere at 20° C. for 48 h, and moved to a growth chamber at 27° C. for 2 days, after which time visual disease ratings were made.
(§2) Compounds with an asterisks (*) were applied at a concentration of 50 ppm, otherwise test solutions were applied at 10 ppm.

[1] = test system: Puccinia recondita f sp. tritici; assay: Test F: wheat leaf rust, preventive spray on wheat seedlings; conditions: 100 = 100% disease control; for Test F rating (% disease control): 10 ppm, wheat leaf rust, 0 = no control
Zymoseptoria tritici = assay: Test E: wheat leaf blotch, preventive spray on wheat seedlings; conditions: 100 = 100% disease control; for Test E rating (% disease control): 10 ppm, wheat leaf blotch, 0 = no control
Stagonospora nodorum = assay: Test D: wheat glume blotch, preventive spray on wheat seedlings; conditions: 100 = 100% disease control; for Test D rating (% disease control): 10 ppm, wheat glume blotch, 0 = no control
From the text: as §1
The test solution was sprayed to the point of run-off on wheat seedlings. The following day the seedlings were inoculated with a spore suspension of Stagonospora nodorum (also known as Septoria nodorum; the causal agent of wheat glume blotch) and incubated in a saturated atmosphere at 20° C. for 48 h, and then moved to a growth chamber at 20° C. for 6 days, after which time visual disease ratings were made.
as §2

[2] = test system: Erysiphe graminis f sp. tritici; assay: Test G: wheat powdery mildew, preventive spray on wheat seedlings; conditions: 100 = 100% disease control; for Test G rating (% disease control): 10 ppm, wheat powdery mildew, 0 = no control
[3] = 10 ppm test solution, 0 = no control relative to controls

| Compound | Test B disease control rating (Botrytis cinerea; [3]) [%] | Test F disease control rating [1, 3] [%] | Test E disease control rating (Zymoseptoria tritici; [3]) [%] | Test D disease control rating (Stagonospora nodorum; [3]) [%] | Test G disease control rating [2, 3] [%] | Test B rating (% disease control) (Botrytis cinerea) [%] | Test F rating (% disease control) [1] [%] | Test E rating (% disease control) (Zymoseptoria tritici) [%] | Test D rating (% disease control) (Stagonospora nodorum) [%] | Test G rating (% disease control) [2] [%] |
| --- | --- | --- | --- | --- | --- | --- | --- | --- | --- | --- |
| CC(C)(C)C(O)(Cn1cncn1)C1=NOC(COc2cccc(Br)c2)C1 (single isomer, unassigned) [Compound 233] | 40 | 100 | 0 | 100 | 99 | – | – | – | – | – |
| OC(Cn1cncn1)(C1=NOC(Cc2ccc(Br)cc2)C1)c1ccc(Cl)cc1 (single isomer, unassigned) [Compound 55] | – | – | – | – | – | 0 | 99 | 2 | 73 | 99 |
| CC(C)(C)C(O)(Cn1cncn1)C1=NOC(COc2ccc(Cl)cc2)C1 (stereo not drawn) [Compound 175, α-[5-[(4-chlorophenoxy)methyl]-4,5-dihydro-3-isoxazolyl]-α-(1,1-dimethylethyl)-1H-1,2,4-triazole-1-ethanol] | – | – | – | – | – | 0 | 100 | 1 | 100 | 100 |
| CC(C)(C)C(O)(Cn1cncn1)C1=NOC(COc2ccc(OC(F)(F)F)cc2)C1 (single isomer, unassigned) [Compound 25] | – | – | – | – | – | 0 | 99 | 0 | 59 | 100 |
| OC(Cn1cncn1)(C1=NOC(c2ccc(Cl)cc2)C1)C1CCCCC1 (single isomer, unassigned) [Compound 196] | – | – | – | – | – | 0 | 100 | 12 | 99 | 100 |
| CC(C)(C)C(O)(Cn1cncn1)C1=NOC(Cn2cc(Br)cn2)C1 (single isomer, unassigned) [Compound 41] | – | – | – | – | – | 0 | 41 | 0 | 0 | 90 |
| CC(C)(C)C(O)(Cn1cncn1)C1=NOC(Cn2cc(Br)cn2)C1 (single isomer, unassigned) [Compound 42] | – | – | – | – | – | 0 | 9 | 0 | 42 | 0 |
| OC(Cn1cncn1)(C1=NOC(COc2ccc(Cl)cn2)C1)c1ccc(Cl)cc1 (single isomer, unassigned) [Compound 164] | – | – | – | – | – | 0 | 100 | 96 | 95 | 100 |
| CC(C)(C)C(O)(Cn1cncn1)C1=NOC(COc2ccc(Cl)nc2)C1 (single isomer, unassigned) [Compound 98] | – | – | – | – | – | 0 | 88 | 0 | 0 | 55 |
| CC(C)(C)C(O)(Cn1cncn1)C1=NOC(Cn2ccc(C(F)(F)F)n2)C1 (single isomer, unassigned) [Compound 48] | – | – | – | – | – | 0 | 99 | 0 | 94 | 99 |
| CCC(C)(C)C(O)(Cn1cncn1)C1=NOC(COc2ccc(Br)cc2)C1 (single isomer, unassigned) [Compound 11] | – | – | – | – | – | 81 | 100 | 88 | 100 | 99 |
| OC(Cn1cncn1)(C1=NOC(COc2ccc(F)cc2)C1)c1ccc(Cl)cc1 (single isomer, unassigned) [Compound 162] | – | – | – | – | – | 0 | 100 | 76 | 96 | 100 |

Source: patent publication US20160242416A1, “FUNGICIDAL ISOXAZOLINE CARBINOLS” (E I DU PONT DE NEMOURS AND COMPANY, priority 2015, published 2016)
